The text below walks through data of patent US9428466B2, “Methods for reducing uric acid levels using barbiturate derivatives” (priority 2013, dated 2016).

Like-named read-outs stand apart in the source and are kept apart here.

One data set concerns the target URAT1 (SLC22A12) (Homo sapiens (Human), UniProt Q96S37). As to the kind of experiment: URAT1 cellular uptake assay (3H-orotate transport, stably transfected URAT-1/CHO cells). In kind it is cell-based. The conditions noted are these: 3H-orotate uptake, 7 concentrations 0.01 to 150 μM, read-out: URAT1 IC50 (μM ± SEM). On the procedure: URAT1 (SLC22A12) activity was evaluated in a cellular uptake assay using a 96-well plate with stably transfected URAT-1/CHO cells. ^3H-orotate was used as the test transport agent, which was measured in a liquid scintillation counter, using benzbromarone as a positive control, and DMSO and non-transfected CHO cells as negative controls (Solvo Biotechnology, Boston, Mass.).

The target of data set [1] is T1, xanthine oxidase (Homo sapiens (Human), UniProt P47989). Kind of data set: Fluorescence-based xanthine oxidase activity assay. It counts as biochemical. The conditions noted are these: triplicate, 10 concentrations. On the procedure:
Xanthine oxidase inhibition was determined using a standard fluorescence-based assay for xanthine oxidase activity (McHale A, Grimes H, Coughlan M P: Int J Biochem. 10:317-9, 1979) with minor variations. […] Experiments on test compounds were performed in triplicate in multi-well plates using 10 concentrations of each compound that ranged over a 3-fold dilution.

Another data set deals with CHO-K1 cells. Kind of data set: In vitro mouse micronucleus assay (a test for cytotoxicity). It counts as cell-based. The conditions noted are these: 24 hr without S9 and 4 hr with S9, 62 μM-1000 μM. The procedure:
The in vitro mouse micronucleus assay was conducted in CHO-K1 cells seeded in 96-well plates and treated with test compounds for 24 hr (without S9) and for 4 hr (with S9). Cytochalasin B was added after 24 hr, and the cells were incubated for an additional 24 hr, after which the cells were fixed and scored for micronuclei. The assay was run using 6 concentrations in duplicate (62 μM-1000 μM), and data for the highest 5 concentrations that were not cytotoxic were reported. Cellular nuclei and micronuclei were stained, and an automated fluorescent microscopic detection system was used to score micronuclei in approximately 2,000 bi-nucleated cells per concentration.

Data set [2] addresses T1, xanthine oxidase. The conditions noted are these: data taken from publications; cited from earlier work.

T1 sequence (P47989 whole entry, species assumed): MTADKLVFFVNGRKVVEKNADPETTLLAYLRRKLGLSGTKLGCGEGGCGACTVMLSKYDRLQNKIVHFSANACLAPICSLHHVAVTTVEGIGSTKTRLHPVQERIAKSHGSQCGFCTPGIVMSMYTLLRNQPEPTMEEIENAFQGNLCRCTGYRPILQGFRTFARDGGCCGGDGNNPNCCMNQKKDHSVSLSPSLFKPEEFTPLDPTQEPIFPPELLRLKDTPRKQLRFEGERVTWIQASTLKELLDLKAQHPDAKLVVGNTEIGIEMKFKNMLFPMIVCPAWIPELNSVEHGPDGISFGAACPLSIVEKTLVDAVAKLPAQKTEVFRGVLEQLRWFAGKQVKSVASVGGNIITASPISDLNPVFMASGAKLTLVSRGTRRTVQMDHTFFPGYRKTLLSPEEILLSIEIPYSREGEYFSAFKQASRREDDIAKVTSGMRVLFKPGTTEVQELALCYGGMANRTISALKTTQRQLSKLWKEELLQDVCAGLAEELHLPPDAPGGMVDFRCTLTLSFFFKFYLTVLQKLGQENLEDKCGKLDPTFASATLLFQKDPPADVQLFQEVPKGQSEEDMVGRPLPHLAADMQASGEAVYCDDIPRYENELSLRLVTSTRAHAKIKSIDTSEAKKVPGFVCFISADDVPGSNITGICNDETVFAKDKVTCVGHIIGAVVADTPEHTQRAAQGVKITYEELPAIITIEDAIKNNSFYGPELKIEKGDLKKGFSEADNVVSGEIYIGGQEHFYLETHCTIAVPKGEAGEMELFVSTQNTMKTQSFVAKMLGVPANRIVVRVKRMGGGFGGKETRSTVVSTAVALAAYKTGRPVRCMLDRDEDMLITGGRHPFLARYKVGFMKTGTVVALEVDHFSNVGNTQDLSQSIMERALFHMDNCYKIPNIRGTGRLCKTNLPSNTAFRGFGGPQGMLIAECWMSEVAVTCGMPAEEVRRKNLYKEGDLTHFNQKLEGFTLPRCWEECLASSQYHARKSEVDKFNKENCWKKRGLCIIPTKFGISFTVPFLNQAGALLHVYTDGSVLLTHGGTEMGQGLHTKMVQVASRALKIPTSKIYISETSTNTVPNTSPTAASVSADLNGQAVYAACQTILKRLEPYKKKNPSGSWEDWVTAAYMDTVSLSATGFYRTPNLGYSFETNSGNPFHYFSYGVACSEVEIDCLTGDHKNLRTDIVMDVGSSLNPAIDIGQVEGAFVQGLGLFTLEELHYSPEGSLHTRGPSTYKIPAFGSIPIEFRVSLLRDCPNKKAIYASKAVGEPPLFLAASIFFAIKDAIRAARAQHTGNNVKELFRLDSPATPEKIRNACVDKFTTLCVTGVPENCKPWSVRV
Chain of URAT1 (SLC22A12) (Q96S37 whole entry): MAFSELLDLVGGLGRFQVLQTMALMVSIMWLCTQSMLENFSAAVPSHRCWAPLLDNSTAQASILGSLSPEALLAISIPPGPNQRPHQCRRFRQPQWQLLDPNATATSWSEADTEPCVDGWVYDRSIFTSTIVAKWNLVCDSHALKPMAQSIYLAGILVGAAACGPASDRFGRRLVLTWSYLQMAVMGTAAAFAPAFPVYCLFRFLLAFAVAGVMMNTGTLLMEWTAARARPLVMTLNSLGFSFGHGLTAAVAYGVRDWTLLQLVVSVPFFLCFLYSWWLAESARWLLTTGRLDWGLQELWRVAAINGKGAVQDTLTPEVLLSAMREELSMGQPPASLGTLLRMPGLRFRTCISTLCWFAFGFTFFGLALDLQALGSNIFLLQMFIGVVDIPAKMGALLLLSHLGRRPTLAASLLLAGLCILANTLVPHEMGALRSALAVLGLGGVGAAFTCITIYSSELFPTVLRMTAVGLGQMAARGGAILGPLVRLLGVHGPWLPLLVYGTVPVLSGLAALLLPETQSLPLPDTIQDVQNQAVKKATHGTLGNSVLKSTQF

Broadly, the IC50 is the point on the concentration scale where inhibition reaches its midpoint. `O=C1NC(=S)NC(=O)C1C(=O)Nc1ccccc1` [Merbarone, 5-(N-phenylcarboxamido)-2-thio-barbituric acid, reference compound]: the values for the IC50 on URAT1 (SLC22A12) and against xanthine oxidase [1] were 5.4 ± 1 µM and 274000 nM, respectively. The “Mouse Micronucleus” value in the data set on CHO-K1 cells is listed as “Positive”.
As for `O=C(Nc1ccccc1)c1c(O)[nH]c(=O)[nH]c1=O` [2-oxo-desthiomerbarone, 1,2,3,4-tetrahydro-6-hydroxy-2,4-dioxo-N-phenyl-5-pyrimidinecarboxamide], the IC50 at URAT1 (SLC22A12) was 1.2 µM; against xanthine oxidase [1], greater than 300000 nM. For the same molecule, in the data set with CHO-K1 cells, the “Mouse Micronucleus” value is “Positive”.
The like results for `O=C(Nc1ccc(O)cc1)c1c(O)[nH]c(=S)[nH]c1=O` [4′-hydroxymerbarone, 1,2,3,4-tetrahydro-6-hydroxy-2-thioxo-4-oxo-N-(4′-hydroxyphenyl)-5-pyrimidinecarboxamide] were, in that order, 9.4 ± 0.6 µM, 680 nM and “Negative”.
On to `O=C(O)CSc1nnc(Br)n1-c1ccc(C2CC2)c2ccccc12` [Lesinurad, lesinurad], for which, on xanthine oxidase [2], the IC50 is greater than 300 µM.
For `O=C(Nc1ccc(O)cc1)c1c(O)[nH]c(=O)[nH]c1=O` [4′-hydroxy-2-oxo-desthiomerbarone, 1,2,3,4-tetrahydro-6-hydroxy-2,4-dioxo-N-(4′-hydroxyphenyl)-5-pyrimidinecarboxamide], the results for the half-inhibitory concentration (IC50) at URAT1 (SLC22A12) and on xanthine oxidase [1] were 2.6 ± 0.6 µM and 1060 nM, respectively. Moreover, the “Mouse Micronucleus” value in the data set on CHO-K1 cells is on record as “Negative”.
